According to PMC13099078 (2023):

Columns and labels:
[1] = tested on: vancomycin-binding aptamer (45-base; EAB sensor) (DNA, aptamer) CGAGGGTACCGCAATAGTACTTATTGTTCGCCTATTGTGGGTCGG; experiment: differential pulse voltammetry; details: 2 mM Mg2+, PBS; 1x PBS, 37°C; apparent; Langmuir fit
[2] = tested on: vancomycin-binding aptamer (45-base; EAB sensor) (DNA, aptamer) CGAGGGTACCGCAATAGTACTTATTGTTCGCCTATTGTGGGTCGG; experiment: alternating current voltammetry; details: 2 mM Mg2+, PBS; 1x PBS, 37°C; apparent; Langmuir fit; 50 and 5 Hz

`CN[C@H](CC(C)C)C(=O)N[C@H]1C(=O)N[C@@H](CC(N)=O)C(=O)N[C@H]2C(=O)N[C@H]3C(=O)N[C@H](C(=O)N[C@H](C(=O)O)c4cc(O)cc(O)c4-c4cc3ccc4O)[C@H](O)c3ccc(c(Cl)c3)Oc3cc2cc(c3O[C@@H]2O[C@H](CO)[C@@H](O)[C@H](O)[C@H]2O[C@H]2C[C@](C)(N)[C@H](O)[C@H](C)O2)Oc2ccc(cc2Cl)[C@H]1O` was tested, and the Kd [1] was 76 ± 6 µM and the Kd [2] was 46 ± 4 µM.
